Where “and” joins values, the source holds several entries; their conditions need not be identical. Equal entries are not always repeated. Inconclusive results and toxic doses are left out.

The text below walks through data of PubChem BioAssay AID330 (DTP/NCI, 2004).

This experiment has as its system P388 leukemia ip, CD2F1 mice, survival T/C. In words: NCI In Vivo Anticancer Drug Screen. Data for tumor model P388 Leukemia (intraperitoneal) in CD2F1 (CDF1) mice. The note with it: endpoint: median survival time, higher = longer survival. In outline: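 Mice carrying the transplanted tumor received test compound or vehicle. Survival was recorded in each group, and the value is the treated-group measurement divided by that of the vehicle-treated control group.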

Where [1] appears, read: dose: 50.0 mg/kg/injection, schedule: Q01DX001 (ip), vehicle: saline with Tween-80.
Setting [2] is: dose: 50.0 mg/kg/injection, schedule: Q01DX009 (ip), vehicle: Klucel (hydroxypropylcellulose) (HPC).
[3] abbreviates: dose: 100.0 mg/kg/injection, schedule: Q01DX009 (ip), vehicle: Klucel (hydroxypropylcellulose) (HPC).
Where [4] appears, read: dose: 50.0 mg/kg/injection, schedule: Q01DX005 (ip), vehicle: saline with Tween-80.
[5] abbreviates: dose: 100.0 mg/kg/injection, schedule: Q01DX005 (ip), vehicle: saline with Tween-80.
Setting [6] is: dose: 50.0 mg/kg/injection, schedule: Q01DX005 (ip), vehicle: saline.
Setting [7] is: dose: 100.0 mg/kg/injection, schedule: Q01DX005 (ip), vehicle: saline.
Setting [8] is: dose: 200.0 mg/kg/injection, schedule: Q01DX005 (ip), vehicle: saline.
Where [9] appears, read: dose: 12.5 mg/kg/injection, schedule: Q01DX009 (ip), vehicle: Klucel (hydroxypropylcellulose) (HPC).
Setting [10] is: dose: 60.0 mg/kg/injection, schedule: Q01DX005 (ip), vehicle: saline with Tween-80.
The mark [11] stands for this setting: dose: 120.0 mg/kg/injection, schedule: Q01DX005 (ip), vehicle: saline with Tween-80.
The mark [12] stands for this setting: dose: 240.0 mg/kg/injection, schedule: Q01DX005 (ip), vehicle: saline with Tween-80.
Where [13] appears, read: dose: 100.0 mg/kg/injection, schedule: Q04DX003 (ip), vehicle: saline.
Where [14] appears, read: dose: 200.0 mg/kg/injection, schedule: Q01DX009 (ip), vehicle: saline with Tween-80.

With `C=C1C(=O)C23C(O)CC4C5(C)CCCC4(C(O)OC5)C2C(OC(C)=O)CC1C3O` (centres undefined), the T/C reads like this: (dose: 4.0 mg/kg/injection, schedule: Q01DX009 (ip), vehicle: other) 115 % of control; (dose: 4.0 mg/kg/injection, schedule: Q01DX009 (ip), vehicle: water) 114 % of control; (dose: 8.0 mg/kg/injection, schedule: Q01DX009 (ip), vehicle: water) 116 % of control; (dose: 16.0 mg/kg/injection, schedule: Q01DX009 (ip), vehicle: other) 122 % of control; (dose: 16.0 mg/kg/injection, schedule: Q01DX009 (ip), vehicle: water) 114 % of control; (dose: 32.0 mg/kg/injection, schedule: Q01DX009 (ip), vehicle: water) 107 % of control.

For the compound `CC1(CN2CCCC2)CCC(NC(=O)C(c2ccccc2)c2ccccc2)C(C)(C)O1` (centres undefined), the T/C is, setting by setting: (dose: 25.0 mg/kg/injection, schedule: Q01DX001 (ip), vehicle: saline with Tween-80) 107 % of control; under setting [1], 104 % of control.

With `NS(=O)(=O)c1c[nH]c(=O)[nH]c1=O`, the T/C by setting is: under setting [2], 105 % of control; under setting [3], 93 % of control; (dose: 200.0 mg/kg/injection, schedule: Q01DX009 (ip), vehicle: Klucel (hydroxypropylcellulose) (HPC)) 97 % of control; (dose: 400.0 mg/kg/injection, schedule: Q01DX009 (ip), vehicle: Klucel (hydroxypropylcellulose) (HPC)) 91 % of control.

`CC(=O)C1=C(C)C2CC3(C)CC(C2(C)C1)C3(C)C` (centres undefined): the T/C runs as follows: under setting [4], 100 % of control; under setting [5], 102 % of control; (dose: 200.0 mg/kg/injection, schedule: Q01DX005 (ip), vehicle: saline with Tween-80) 100 % of control.

Turning to `COc1cc(NC(=O)c2ccc(NC(=O)c3ccc(N)cc3)cc2)c(OC)cc1N=Nc1ccc(N=Nc2ccc3cc(S(=O)(=O)O)cc(S(=O)(=O)O)c3c2)c(C)c1`, the T/C under setting [6] is 106 % of control (2×) and 111 % of control; the T/C under setting [7] is 106 % of control and 109 % of control and 115 % of control; the T/C under setting [8] was 114 % of control and 115 % of control and 123 % of control; the T/C (dose: 400.0 mg/kg/injection, schedule: Q01DX005 (ip), vehicle: saline) was 116 % of control and 117 % of control.

Consider `CC(=O)NC1=NN(C(C)=O)C(c2ccccc2)S1=O` (centres undefined), for which the T/C is, setting by setting: under setting [4], 108 % of control; under setting [5], 107 % of control.

With `CCCCCCCCCCCCCCCCCCOCC(O)CN(CCO)CCO` (centres undefined), the T/C reads like this: under setting [9], 91 % of control; (dose: 25.0 mg/kg/injection, schedule: Q01DX009 (ip), vehicle: Klucel (hydroxypropylcellulose) (HPC)) 91 % of control; under setting [2], 96 % of control.

As for `Cc1cc(N2CCCCC2)cc(=O)o1`, the T/C under setting [2] was 104 % of control and the T/C under setting [3] was 102 % of control.

For `COC(=O)/C=C/c1c2ccccc2cc2ccccc12`, the T/C reads like this: under setting [10], 96 % of control; under setting [11], 96 % of control; under setting [12], 90 % of control.

On to `COn1nnc2ccc([N+](=O)[O-])cc21`, for which the T/C is, setting by setting: under setting [1], 99 % of control; (dose: 100.0 mg/kg/injection, schedule: Q01DX001 (ip), vehicle: saline with Tween-80) 101 % of control; (dose: 200.0 mg/kg/injection, schedule: Q01DX001 (ip), vehicle: saline with Tween-80) 92 % of control.

As to `O=C1OC(C(F)(F)F)=NC1Cc1ccccc1` (centres undefined), the T/C (dose: 100.0 mg/kg/injection, schedule: Q04DX003 (ip), vehicle: saline with Tween-80) is 107 % of control; the T/C (dose: 200.0 mg/kg/injection, schedule: Q04DX003 (ip), vehicle: saline with Tween-80) was 98 % of control; the T/C (dose: 400.0 mg/kg/injection, schedule: Q04DX003 (ip), vehicle: saline with Tween-80) is 101 % of control.

With `C#Cc1cccc(NC(=O)c2ccc(Cl)cc2Cl)c1`, the T/C was 100 % of control (dose: 60.0 mg/kg/injection, schedule: Q01DX005 (ip), vehicle: Klucel (hydroxypropylcellulose) (HPC)); 104 % of control (dose: 120.0 mg/kg/injection, schedule: Q01DX005 (ip), vehicle: Klucel (hydroxypropylcellulose) (HPC)); 105 % of control (dose: 240.0 mg/kg/injection, schedule: Q01DX005 (ip), vehicle: Klucel (hydroxypropylcellulose) (HPC)).

`C/C=C/C(C#N)OC(C)=O` (centres undefined): the T/C reads like this: (dose: 3.75 mg/kg/injection, schedule: Q01DX005 (ip), vehicle: saline) 100 % of control; (dose: 7.5 mg/kg/injection, schedule: Q01DX005 (ip), vehicle: saline) 100 % of control.

Regarding `CCCCC(CC)COCC(O)Cn1cnc2c(N)ncnc21` (centres undefined), the T/C reads like this: (dose: 50.0 mg/kg/injection, schedule: Q01DX005 (ip), vehicle: Klucel (hydroxypropylcellulose) (HPC)) 104 % of control; (dose: 100.0 mg/kg/injection, schedule: Q01DX005 (ip), vehicle: Klucel (hydroxypropylcellulose) (HPC)) 97 % of control; (dose: 200.0 mg/kg/injection, schedule: Q01DX005 (ip), vehicle: Klucel (hydroxypropylcellulose) (HPC)) 91 % of control.

Regarding `CCOC(=O)C1CCCCC12OCCO2` (centres undefined), the T/C is, setting by setting: under setting [6], 95 % of control; under setting [7], 96 % of control; under setting [8], 95 % of control.

Consider `COSc1ccc(OC)cc1`, for which the T/C by setting is: under setting [13], 102 % of control; (dose: 200.0 mg/kg/injection, schedule: Q04DX003 (ip), vehicle: saline) 97 % of control.

As to `COC(=O)c1c(C(=O)OC)c(-c2ccc(Cl)c(Cl)c2)n2c1CCC2`, the T/C was 87 % of control (dose: 100.0 mg/kg/injection, schedule: Q01DX009 (ip), vehicle: saline with Tween-80); 89 % of control under setting [14]; 88 % of control (dose: 400.0 mg/kg/injection, schedule: Q01DX009 (ip), vehicle: saline with Tween-80).

For `O=C(Nc1ccc(C2=NCCN2)cc1)Nc1cccc(NC(=O)Nc2cccc(C3=NCCN3)c2)c1`, the T/C is, setting by setting: (dose: 0.75 mg/kg/injection, schedule: Q04DX003 (ip), vehicle: saline with Tween-80) 104 % of control; (dose: 1.5 mg/kg/injection, schedule: Q04DX003 (ip), vehicle: saline with Tween-80) 118 % of control; (dose: 8.0 mg/kg/injection, schedule: Q01DX009 (ip), vehicle: saline with Tween-80) 163 % of control; (dose: 12.0 mg/kg/injection, schedule: Q01DX009 (ip), vehicle: saline with Tween-80) 254 % of control; (dose: 12.5 mg/kg/injection, schedule: Q04DX003 (ip), vehicle: saline with Tween-80) 150 % of control; (dose: 18.0 mg/kg/injection, schedule: Q01DX009 (ip), vehicle: saline with Tween-80) 272 % of control. Besides, the T/C under setting [13] was 104 % of control.

As for `COc1cncn2c(C)nnc12`, the T/C by setting is: under setting [6], 100 % of control; under setting [7], 99 % of control; under setting [8], 94 % of control.

As for `O=C(NC1CCCCC1)OCc1c(COC(=O)NC2CCCCC2)c(-c2ccc(Cl)c(Cl)c2)n2c1CCC2`, the T/C is 94 % of control (dose: 6.25 mg/kg/injection, schedule: Q01DX009 (ip), vehicle: Klucel (hydroxypropylcellulose) (HPC)); 119 % of control under setting [9]; 150 % of control and 168 % of control (dose: 25.0 mg/kg/injection, schedule: Q01DX009 (ip), vehicle: saline with Tween-80); 161 % of control under setting [2]; 166 % of control and 170 % of control and 174 % of control (dose: 50.0 mg/kg/injection, schedule: Q01DX009 (ip), vehicle: saline with Tween-80); 189 % of control under setting [3]. Also, under setting [14], the T/C is 91 % of control.

Regarding `OCCN(CCO)Cc1nc2ccc(Cl)cc2[nH]1`, the T/C is, setting by setting: under setting [6], 98 % of control; under setting [7], 91 % of control; under setting [8], 95 % of control.

Turning to `COc1cc2c(cc1OC)C(C#N)(C(c1ccccc1)c1ccccc1)N(C(=O)c1ccccc1)C=C2` (centres undefined), the T/C by setting is: under setting [10], 100 % of control; under setting [11], 100 % of control; under setting [12], 96 % of control.
